Reference: patent publication US9550792B2, “Polycyclic substituted pyrazole kinase activity inhibitors and use thereof” (priority 2013, dated 2017)

Assays:
Aurora A = molecular target: T1, Aurora A (Homo sapiens, UniProt O14965); test: Inhibitory activity to Aurora A (FRET); format: biochemical; settings: for inhibition at 1 µM: read-out: Aurora A inhibition % (1 × 10^−6 mol/L)
T1 construct: purchased
T1 sequence (O14965 1-403): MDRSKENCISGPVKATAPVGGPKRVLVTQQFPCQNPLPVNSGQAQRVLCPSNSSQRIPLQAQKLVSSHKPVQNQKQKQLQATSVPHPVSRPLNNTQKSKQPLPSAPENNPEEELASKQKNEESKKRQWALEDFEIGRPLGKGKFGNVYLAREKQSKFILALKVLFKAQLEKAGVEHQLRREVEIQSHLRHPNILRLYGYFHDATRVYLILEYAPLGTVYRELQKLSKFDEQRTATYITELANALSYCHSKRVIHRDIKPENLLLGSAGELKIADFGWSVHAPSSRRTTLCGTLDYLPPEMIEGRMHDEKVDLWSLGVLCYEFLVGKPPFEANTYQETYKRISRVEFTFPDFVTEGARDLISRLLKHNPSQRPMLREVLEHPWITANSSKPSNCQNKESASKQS
Protocol: The inhibitory activities of the synthesized compounds for Aurora A is determined by fluorescence resonance energy transfer (FRET) and were compared with the positive control drug so as to screen the compounds with better activities. Aurora A was purchased in the form of a kit or obtained through purification. Procedures: Aurora A is diluted to a suitable concentration with kinase diluent. The kinase reaction mixture contains Aurora A, peptide substrate, HEPES (pH7.5), BRIJ-35, MgCl2 and EDTA. Aurora A phospho-peptide substrate is used as the control of 100% phosphorylation and ATP-free as the control of 0% phosphorylation. After 1 h, the diluted Development Reagent A is added into the reaction system. Then the reaction is allowed to proceed for 1 h and then quenched with Stop Reagent. The excitation wavelength is 400 nm and the fluorescence intensity is detected at 445 nm (coumarin) and 520 nm (fluorescein). The inhibitions of the tested compounds are calculated according to the formula.

CDK2/A = molecular target: T2, CDK2/A (Homo sapiens, UniProt P24941); test: Inhibitory activity to CDK2 (FRET); format: biochemical; settings: for inhibition at 1 µM: read-out: CDK2 inhibition % (1 × 10^−6 mol/L)
T2 construct: purchased
Protocol: CDK2/A was purchased in the form of a kit or obtained through purification.
Procedures: CDK2/A is diluted to a suitable concentration with kinase diluent. The kinase reaction mixture contains CDK2/A, peptide substrate, HEPES (pH7.5), BRIJ-35, MgCl2 and EDTA. CDK2 phospho-peptide substrate is used as the control of 100% phosphorylation and ATP-free as the control of 0% phosphorylation. After 1 h, the diluted Development Reagent A is added into the reaction system. Then the reaction is allowed to proceed for 1 h and then quenched with Stop Reagent. […] The inhibitions of the tested compounds are calculated according to the formula.

Compound	Aurora A inhibition % (1 × 10^−6 mol/L) (Aurora A)	CDK2 inhibition % (1 × 10^−6 mol/L) (CDK2/A)	inhibition at 1 µM (Aurora A)	inhibition at 1 µM (CDK2/A)	melting point
4-(7-(1H-pyrrolo[2,3-c]pyridyl)amino)-N-(4-((4-morpholinyl)methyl)phenyl)-1H-3-pyrazolecarboxamide [Compound I-44]	54.94%	75.91%			
Cc1cc2c(Nc3c[nH]nc3C(=O)Nc3ccc(CN4CCOCC4)cc3)ncnc2s1 [Compound I-4, 4-(4-(6-methylthieno[2,3-d]pyrimidinyl)amino)-N-(4-((4-morpholinyl)methyl)phenyl)-1H-3-pyrazolecarboxamide]	64.46%	52.73%			
Cc1csc2ncnc(Nc3c[nH]nc3C(=O)Nc3ccc(CN4CCN(C)CC4)cc3)c12 [Compound I-5, 4-(4-(5-methylthieno[2,3-d]pyrimidinyl)amino)-N-(4-((4-methyl-1-piperazinyl)methyl)phenyl)-1H-3-pyrazolecarboxamide]	58.62%	51.24%			
Cc1csc2ncnc(Nc3c[nH]nc3C(=O)Nc3ccc(CN4CCOCC4)cc3)c12 [Compound I-6, 4-(4-(5-methylthieno[2,3-d]pyrimidinyl)amino)-N-(4-((4-morpholinyl)methyl)phenyl)-1H-3-pyrazolecarboxamide]	54.80%	60.68%			
Cc1sc2ncnc(Nc3c[nH]nc3C(=O)Nc3ccc(CN4CCN(C)CC4)cc3)c2c1C [Compound I-7, 4-(4-(5,6-dimethylthieno[2,3-d]pyrimidinyl)amino)-N-(4-((4-methyl-1-piperazinyl)methyl)phenyl)-1H-3-pyrazolecarboxamide]	54.93%	65.12%			
Cc1sc2ncnc(Nc3c[nH]nc3C(=O)Nc3ccc(CN4CCOCC4)cc3)c2c1C [Compound I-8, 4-(4-(5,6-dimethylthieno[2,3-d]pyrimidinyl)amino)-N-(4-((4-morpholinyl)methyl)phenyl)-1H-3-pyrazolecarboxamide]	48.49%	54.65%			
O=C(Nc1ccc(CN2CCOCC2)cc1)c1n[nH]cc1Nc1ncnc2ccsc12 [Compound I-10, 4-(4-thieno[3,2-d]pyrimidinylamino)-N-(4-((4-morpholinyl)methyl)phenyl)-1H-3-pyrazolecarboxamide]			54.9%	56.2%	275 to 277 °C
O=C(Nc1ccc(CN2CCOCC2)cc1)c1n[nH]cc1Nc1ncnc2[nH]ccc12 [Compound I-12, 4-(4-(7H-pyrrolo[2,3-d]pyrimidinyl)amino)-N-(4-((4-morpholinyl)methyl)phenyl)-1H-3-pyrazolecarboxamide]	49.44%	66.39%			
Cc1cc2c(Nc3c[nH]nc3C(=O)Nc3ccc(CN4CCOCC4)cc3)ncnc2[nH]1 [Compound I-14, 4-(4-(6-methyl-7H-pyrrolo[2,3-d]pyrimidinyl)amino)-N-(4-((4-morpholinyl)methyl)phenyl)-1H-3-pyrazolecarboxamide]	66.26%	65.78%			
O=C(Nc1ccc(CN2CCOCC2)cc1)c1n[nH]cc1Nc1ncnc2cc[nH]c12 [Compound I-18, 4-(4-(5H-pyrrolo[3,2-d]pyrimidinyl)amino)-N-(4-((4-morpholinyl)methyl)phenyl)-1H-3-pyrazolecarboxamide]	53.66%	64.99%			
Cc1cc2ncnc(Nc3c[nH]nc3C(=O)Nc3ccc(CN4CCOCC4)cc3)c2[nH]1 [Compound I-20, 4-(4-(6-methyl-5H-pyrrolo[3,2-d]pyrimidinyl)amino)-N-(4-((4-morpholinyl)methyl)phenyl)-1H-3-pyrazolecarboxamide]	60.72%	62.25%			
O=C(Nc1ccc(CN2CCOCC2)cc1)c1n[nH]cc1Nc1ncnc2ccoc12 [Compound I-24, 4-(4-furo[3,2-d]pyrimidinylamino)-N-(4-((4-morpholinyl)methyl)phenyl)-1H-3-pyrazolecarboxamide]			49.2%	67.1%	271 to 273 °C
O=C(Nc1ccc(CN2CCOCC2)cc1)c1n[nH]cc1Nc1nccc2sccc12 [Compound I-26, 4-(4-thieno[3,2-c]pyridylamino)-N-(4-((4-morpholinyl)methyl)phenyl)-1H-3-pyrazolecarboxamide]			61.1%	73.1%	269 to 271 °C
Cc1cc2c(Nc3c[nH]nc3C(=O)Nc3ccc(CN4CCOCC4)cc3)nccc2s1 [Compound I-28, 4-(4-(2-methylthieno[3,2-c]pyridyl)amino)-N-(4-((4-morpholinyl)methyl)phenyl)-1H-3-pyrazolecarboxamide]	67.63%	76.91%			
Cc1csc2c(Nc3c[nH]nc3C(=O)Nc3ccc(CN4CCN(C)CC4)cc3)nccc12 [Compound I-31, 4-(7-(3-methylthieno[2,3-c]pyridyl)amino)-N-(4-((4-methyl-1-piperazinyl)methyl)phenyl)-1H-3-pyrazolecarboxamide]	70.27%	45.34%			
Cc1csc2c(Nc3c[nH]nc3C(=O)Nc3ccc(CN4CCOCC4)cc3)nccc12 [Compound I-32, 4-(7-(3-methylthieno[2,3-c]pyridyl)amino)-N-(4-((4-morpholinyl)methy)phenyl)-1H-3-pyrazolecarboxamide]	67.45%	38.28%			
CN1CCN(Cc2ccc(NC(=O)c3n[nH]cc3Nc3nccc4occc34)cc2)CC1 [Compound I-33, 4-(4-furo[3,2-c]pyridylamino)-N-(4-((4-methyl-1-piperazinyl)menthyl)phenyl)-1H-3-pyrazolecarboxamide]	45.08%	44.93%			
Cc1cc2c(Nc3c[nH]nc3C(=O)Nc3ccc(CN4CCN(C)CC4)cc3)nccc2o1 [Compound I-35, 4-(4-(2-methylfuro[3,2-c]pyridyl)amino)-N-(4-((4-methyl-1-piperazinyl)methyl)phenyl)-1H-3-pyrazolecarboxamide]	55.99%	73.23%			
Cc1cc2c(Nc3c[nH]nc3C(=O)Nc3ccc(CN4CCOCC4)cc3)nccc2o1 [Compound I-36, 4-(4-(2-methylfuro[3,2-c]pyridyl)amino)-N-(4-((4-morpholinyl)methyl)phenyl)-1H-3-pyrazolecarboxamide]	56.23%	64.51%			
CN1CCN(Cc2ccc(NC(=O)c3n[nH]cc3Nc3nccc4cc[nH]c34)cc2)CC1 [Compound I-43, 4-(7-(1H-pyrrolo[2,3-c]pyridyl)amino)-N-(4-((4-methyl-1-piperazinyl)methyl)phenyl)-1H-3-pyrazolecarboxamide]	55.02%	76.09%			
Cc1cc2ccnc(Nc3c[nH]nc3C(=O)Nc3ccc(CN4CCN(C)CC4)cc3)c2[nH]1 [Compound I-45, 4-(7-(2-methyl-1H-pyrrolo[2,3-c]pyridyl)amino)-N-(4-((4-methyl-1-piperazinyl)methyl)phenyl)-1H-3-pyrazolecarboxamide]	63.21%	60.11%			
Cc1cc2ccnc(Nc3c[nH]nc3C(=O)Nc3ccc(CN4CCOCC4)cc3)c2[nH]1 [Compound I-46, 4-(7-(2-methyl-1H-pyrrolo[2,3-c]pyridyl)amino)-N-(4-((4-morpholinyl)methyl)phenyl)-1H-3-pyrazolecarboxamide]	60.73%	68.57%			
